Laboratory results taken from US20080227853A1, “ANDROGENE MEMBRANE RECEPTOR AGONIST” (BIONATURE E. A. LIMITED, priority 2007, published 2008).

System: T47D human breast cancer cells
Assay: Actin cytoskeleton modification in T47D cells (rhodamine-phalloidin staining)
Assay type: cell-based
Conditions: T47D cells incubated 24 hours, FIG. 3

Oc1cc(O)c2c(c1)O[C@H](c1ccc(O)c(O)c1)[C@H](O)[C@H]2c1c(O)cc(O)c2c1O[C@H](c1ccc(O)c(O)c1)[C@H](O)C2 [B2]
modifications of the actin cytoskeleton: polymerization and sub-membrane redistribution

Oc1cc(O)c2c(c1)O[C@H](c1ccc(O)c(O)c1)[C@H](O)[C@H]2c1c(O)cc2c(c1O)C[C@@H](O)[C@@H](c1ccc(O)c(O)c1)O2 [B5]
modifications of the actin cytoskeleton: polymerization and sub-membrane redistribution

catechin
modifications of the actin cytoskeleton: polymerization and sub-membrane redistribution
